Nine compounds from ChEMBL document CHEMBL1136196, “Synthesis of three enantiomeric pairs of scyllo-inositol phosphate and molecular interactions between all possible regioisomers of scyllo-inositol phosphate and inositol 1,4,5-trisphosphate 3-kinase” (Bioorg Med Chem Lett, 2003) can be followed below.

Some results are limits rather than exact numbers.

In the assay the target is Inositol-trisphosphate 3-kinase A (Rattus norvegicus, UniProt P17105). The assay is described as follows: Binding affinity against recombinant plasmid rat brain IP3K by overexpressing in Escherichia coli.
Inositol-trisphosphate 3-kinase A, sequence (P17105 whole entry): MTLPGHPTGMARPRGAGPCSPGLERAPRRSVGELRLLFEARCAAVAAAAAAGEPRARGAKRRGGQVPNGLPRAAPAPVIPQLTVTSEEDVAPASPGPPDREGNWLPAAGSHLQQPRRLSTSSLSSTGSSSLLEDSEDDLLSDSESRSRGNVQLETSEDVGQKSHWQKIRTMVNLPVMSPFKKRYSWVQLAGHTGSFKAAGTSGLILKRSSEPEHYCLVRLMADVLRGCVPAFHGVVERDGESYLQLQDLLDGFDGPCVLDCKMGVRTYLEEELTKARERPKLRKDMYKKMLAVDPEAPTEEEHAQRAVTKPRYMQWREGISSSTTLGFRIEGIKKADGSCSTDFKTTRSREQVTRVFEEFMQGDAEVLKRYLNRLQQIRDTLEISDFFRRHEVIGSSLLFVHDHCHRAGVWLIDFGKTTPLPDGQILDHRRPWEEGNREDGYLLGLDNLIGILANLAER
One may read the IC50 as the point on the concentration scale where inhibition reaches its midpoint. Take `O=P(O)(O)O[C@@H]1[C@H](O)[C@H](O)[C@@H](OP(=O)(O)O)[C@H](OP(=O)(O)O)[C@H]1O` (stereo in doubt; form 3) [INS(1,4,5)P3]: the IC50 turned out to be 43.7 µM.
For the compound `O=P(O)(O)O[C@@H]1[C@H](O)[C@H](O)[C@@H](OP(=O)(O)O)[C@H](OP(=O)(O)O)[C@H]1O` (stereo in doubt; form 2) [INS(1,4,5)P3], the half-inhibitory concentration (IC50) was determined as 6.3 µM.
Then `O=P(O)(O)O[C@H]1[C@H](O)[C@@H](OP(=O)(O)O)[C@H](OP(=O)(O)O)[C@@H](OP(=O)(O)O)[C@H]1O`, with 27.8 µM.
For the compound `O=P(O)(O)O[C@H]1[C@H](OP(=O)(O)O)[C@H](OP(=O)(O)O)[C@H](O)[C@@H](O)[C@H]1OP(=O)(O)O`, the half-maximal inhibitory concentration (IC50) was over 100 µM.
In the case of `O=P(O)(O)O[C@H]1[C@H](OP(=O)(O)O)[C@H](O)[C@H](O)[C@@H](O)[C@@H]1OP(=O)(O)O`, the concentration for half-maximal inhibition (IC50) came out at 27.4 µM.
Then `O=P(O)(O)O[C@H]1[C@H](O)[C@@H](OP(=O)(O)O)[C@H](O)[C@@H](OP(=O)(O)O)[C@H]1O`, with 90 µM; and `O=P(O)(O)O[C@H]1[C@@H](O)[C@@H](OP(=O)(O)O)[C@H](OP(=O)(O)O)[C@@H](OP(=O)(O)O)[C@@H]1O`, with 39.4 µM; and `O=P(O)(O)O[C@H]1[C@H](OP(=O)(O)O)[C@@H](OP(=O)(O)O)[C@H](O)[C@@H](O)[C@H]1OP(=O)(O)O`, with over 100 µM.
In the case of `O=P(O)(O)O[C@@H]1[C@H](O)[C@H](O)[C@@H](OP(=O)(O)O)[C@H](OP(=O)(O)O)[C@H]1O` (stereo in doubt; form 1) [INS(1,4,5)P3], the IC50 came to 2.6 µM.
